pIC50: −log10 of the molar value. Read-outs that look alike come from different tables or passages of the source. Each block holds one compound with its values, some of them ahead of it.
How the values were obtained:
[1] = test system: HeLa cells; experiment: MTT cell viability assay, chemotherapeutic agent plus composition; format: cell-based; conditions: for viability reduction: chemotherapeutic agent plus hydralazine 10 μM and magnesium valproate 1 mM, viability on day 4
Protocol: With this objective, three drugs were selected that are representative of his class: alkylating agents as cisplatin, antibiotic as doxorrubicin, antimetabolite as gemcitabine. The cells were plated in 96-well plates (Falcon Becton Dickinson, Franklin Lakes, N.J.) at a density of 1.5-2.5×10^3 cells/well in 0.1 ml of complete media. The following day the cells were treated with the chemotherapeutic agent at the concentration indicated in FIGS. 2A, 2B y 2C plus hydralazine at 10 μM and valproic acid or magnesium valproate at 1 mM. On the next day, the media containing the drugs was removed and fresh hydralazine and magnesium valproate were added at same concentration for another additional 48 hours. On the following day (day 4) cell viability was measured using an MTT assay. Briefly, 50 μl of MTT reagent in phosphate buffered solution were added to each well. […] Thereafter it is read spectrophotometrically on a ELISA reader. All the assays were carried out in triplicate. The cytotoxic effect of each treatment was expressed in the percentage of cell viability relative to the untreated control (% control) which is defined as [(A570nm treated cells)/A570nm untreated cells)]×100.

[2] = test system: sarcoma HT1080 cellular line tumors; experiment: HT1080 sarcoma model in immunodeficient mice; format: in vivo, athymic mice
Protocol: Once the capacity of hydralazine and valproic acid or a salt thereof such as magnesium valproate to alter the expression génica in the patients' tumors was assessed, we investigate if the composition of these transcriptome modifying agents increased the antitumoral effect of the chemotherapy in a model of sarcoma in immunodeficient mice. With this goal, groups of 6 female athymic mice were studied, which were injected with 6 million cells of the sarcoma HT1080 cellular line. Once the tumors were formed, the animals were treated systemically with hydralazine and valproic acid or a salt thereof such as magnesium valproate with doses equivalent to those used in the patients. The groups of treatment were as follows: 1) control treated with saline solution, 2) treated weekly with adriamycin, 3) treated with the composition of hydralazine and valproato for 7 days followed by the same weekly treatment with adriamycin. […] This phenomenon occurs commonly in the treatment of the cancer in the patients, where often an entire or almost entire antitumoral response is observed to relapse later. The composition of the present invention therefore might induce extended or complete remissions of the tumors.

[3] = test system: expression of suppressive genes (APC, MGMT, ER, GSTP1, DAPK, RARβ, FHIT, p16)
Protocol: (§1) Whit this goal, hydralazine was administered to groups of 4 patients each group at doses of: 1) 50 mg/day, 2) 75 mg/day, 3) 100 mg/day and 4) 150 mg/day for 10 days. Biopsies and peripheral blood samples were taken before commencing treatment and at day 11. The state of pre- and post-treatment methylation was analyzed for the promoters of the following genes: APC, MGMT; ER, GSTP1, DAPK, RARβ, FHIT and p16 as well as the state of expression of their messengers by RT-PCR. Also the state of methylation of the gene subject to parental unactivation H19, and a genomic clone which normally is found methylated was evaluated, as well as the global content of methylated citokines in the genome. The toxicity to hydralazine was evaluated using the escale from the U.S. National Cancer Institute (CTC NCI). […] FIG. 3A.

[4] = test system: promoters of APC, MGMT, ER, GSTP1, DAPK, RARβ, FHIT and p16; conditions: post-treatment biopsies
Protocol: as §1

[5] = 50-150 mg/day for 10 days, cancer patients
Protocol: as §1

[6] = test system: histone deacetylases; experiment: Clinical study of magnesium valproate: histone deacetylase activity in nuclear extracts of the tumor; format: in vivo, human
Protocol: (§2) Twelve patients with this cancer of recent diagnosis and without previous treatment received the following doses of magnesium valproate in groups of 4 patients. Group 1, 20 mg/Kg, Group 2, 30 mg/kg, Group 3, 40 mg/Kg. A biopsy of the tumor and a blood sample were taken before the treatment and on the following day (day 6) since valproic acid or a salt thereof such as magnesium valproate was administered for 5 days in divided doses every 8 hours. The hyperacetylation of Histone H3 was analyzed in the samples and histone H4 in the tumor by Western blot, as well as the activity of histone deacetylases in nuclear extracts of the tumor using a calorimetric essay, as well as the levels of valproic acid in serum. The level of expression of the genes p21 and CAR was also analyzed in the pos-treatment biopsies. The toxicity of the treatment was recorded at the end of the cycle.

[7] = test system: Histone H3 and histone H4; experiment: Clinical study of magnesium valproate: histone hyperacetylation in tumor by Western blot; format: in vivo, human; conditions: of 12 patients, after treatment
Protocol: as §2

[8] = Clinical study of magnesium valproate: toxicity; format: in vivo, human; conditions: 20, 30, 40 mg/Kg for 5 days
Protocol: as §2

[9] = test system: p21; experiment: Clinical study of magnesium valproate: gene expression in post-treatment biopsies; format: in vivo, human; conditions: FIG. 8
Protocol: as §2

Compound: COc1cccc2c1C(=O)c1c(O)c3c(c(O)c1C2=O)C[C@@](O)(C(=O)CO)C[C@@H]3O[C@H]1C[C@H](N)[C@H](O)[C@H](C)O1 [adriamycin]
- viability reduction [1]: 27%
- tumor re-growth after 3 weeks ([2]; weekly adriamycin alone, or composition for 7 days followed by weekly adriamycin, FIG. 9): the tumors grow again
- antitumoral effect ([2]; weekly adriamycin, 3 weeks after treatment): almost complete antitumoral effect

Compound: N.N.[Cl][Pt][Cl] [cisplatin]
- viability reduction [1]: 37%
- pIC50 ([1]; read-out: inhibitory concentration 50 (IC50)): 4.92

Compound: Nc1ccn([C@@H]2O[C@H](CO)[C@@H](O)C2(F)F)c(=O)n1 [gemcitabine]
- viability reduction [1]: 37%

Compound: NNc1nncc2ccccc12 [hydralazine, 1-hydrazinophthalazine]
- effect on genic expression in patients with cancer ([3]; dose between 50 and 150 mg): effective to alter the genic expression
- cases demethylated post-treatment that re-expressed the gene ([3]; of the 12 informative cases): 9 cases
- percentage of demethylation ([4]; hydralazine 50 mg/day for 10 days): 40%
- percentage of demethylation ([4]; hydralazine 75 mg/day for 10 days): 52%
- percentage of demethylation ([4]; hydralazine 100 mg/day for 10 days): 43%
- percentage of demethylation ([4]; hydralazine 150 mg/day for 10 days): 32%
- frequency of demethylation, p16 ([4]; 2 out of 3): 67%
- frequency of demethylation, MGMT ([4]; 2 out of 13 samples): 15%
- tolerability [5]: well tolerated
- undesirable effects registered [5]: nausea, sickness, fatigue, headache and palpitations

- patients with no changes in activity of histone deacetylases [6]: two
Compound: CCCC(CCC)C(=O)O [magnesium valproate, 2-propylpentanoic acid]
- patients in whom activity of histone deacetylases diminished ([6]; two-tailed t test p<0.0264): 8 patients
- patients with hyperacetylation in both histones [7]: six
- patients with hyperacetylation of H3 [7]: nine
- patients with hyperacetylation of H4 [7]: seven
- tolerability [8]: well tolerated
- patients with Grade 2 drowsiness ([8]; of 12 patients): nine
- expression of p21 [9]: increases its expression

Reference: patent US9186339B2, “Use of transcriptome modifying agents and chemotherapy or radiotherapy against cancer” (UNIVERSIDAD NACIONAL AUTONOMA DE MEXICO, priority 2005, dated 2015)
